Where two headings read alike, the source gives them in different places.
Tests used:
[1] = Pharmacokinetic study: serum samples after oral administration to rats; type: in vivo, Long-Evans rats
Description: The test for the anti-tussive activity was done according to S[…]nd Pozzatti (1960) S[…]. and POZZATTI C., Anti-tussive activity and other pharmacological properties of six oxadiazoles. Arch. int. pharmacodyn. 129, 249-263, 1960. Since the details are given in this publication, it should only be recalled that the test is performed on guineapigs by using acrolein inhalation to produce cough. Male guinea pigs were used weighing 300-500 grams. The pharmacokinetic study was performed in Long-Evans rats of both sexes weighing 150 grams. […] The animals were sacrificed at
time intervals and serum samples were taken. […] MIZUTANI M. and NAITO S., Studies on absorption and excretion of drugs. XXIX. Biopharmaceutical studies on guaiacol glycerol ether and related compounds. I. Blood level of guaiacol glycerol ether in rabbit and its binding with serum proteins. Chem. Pharm. Bull. 15, 1422-1426, 1967. Moreoever, ibuprofen and guaiacol were dosed according to the methods of Kaiser and […] (1974) and Mizutani and Naito (1967), respectively. KAISER, D. G. and […]. J., GLC determination of ibuprofen [(+)-2-(p-isobutylphenyl)propionic acid] in plasma. J. Pharm. Sci. 63, 219-221, 1974. MIZUTANI M. and NAITO S., Studies on absorption and excretion of drugs. XXIX. Biopharmaceutical studies on guaiacol glycerol ether and related compounds. […]

intestine [2] = settings: rat, in vivo, po
Description: (§2) Experiments were done in Long-Evans rats of both sexes weighing 150-190 grams. The drugs were suspended in methyl-cellulose (0.5%) and given by gavage. The animals were fasted during the 8 hours before treatment and were sacrificed 18 hours later. They were autopsied and gastrointestinal lesions were scored according to the score system described by Cioli et al. (1967).

[3] = test system: writhing reflexes induced by phenylquinone; assay: Analgesic activity: writhing reflexes induced by phenylquinone (Hendershot and Forsaith); type: in vivo, Swiss mice
Excerpt: (§1) 3. Anti-inflammatory activity: In connection with the anti-inflammatory activity, both the anti-edema and analgesic activities were studied (namely, the ability to inhibit the painful response from inflamed tissues). The anti-edema activity was studied according to Winter et al. (1962). WINTER C. A., RISLEY E. A. and NUSS G. W., Carrageenin-induced edema in hind
The analgesic activity was studied according to Hendershot and Forsaith (1959). HENDERSHOT L. C. and FORSAITH J., Antagonism of the frequency of phenylquinone induced writhing in the mouse by weak analgesics and non-analgesics. J. Pharmacol. Exp. Ther. 125, 237-240, 1959. Swiss mice of both sexes weighing 18-22 grams were used.

gastric mucosa = assay: Gastrointestinal tolerance: ulcerogenic activity in the gastric mucosa of rats; type: in vivo, Long-Evans rats
Description: as §2

[4] = test system: carrageenin-induced paw edema; assay: Anti-edema activity: carrageenin-induced paw edema in rats (Winter et al.); type: in vivo, Long-Evans rats; set-up: Reduction of edema: unit not given here; settings: for anti-inflammatory activity, comparison of the two drugs: carrageenin edema, rats, by gavage
Excerpt: as §1
paw of the rat as an assay for anti-inflammatory drugs. Proc. Soc. Exp. Biol. Med. 111, 544-547, 1962. […]

in vivo = settings: rat, po
Description: Long-Evans rats of both sexes were used weighing 135-188 grams. The drugs were suspended in methyl-cellulose (0.5%) and given by gavage. Deaths were recorded during the two weeks following treatment. The LD50 was calculated according to Litchfield and Wilcoxon (1949).

[5] = Hydrolysis of GIH in the presence of serum
[6] = test system: cough produced by acrolein inhalation; assay: Anti-tussive activity: cough produced by acrolein inhalation in guinea pigs (Silvestrini and Pozzatti); type: in vivo; settings: Cavia porcellus, acrolein-induced cough
Description: The test for the anti-tussive activity was done according to Silvestrini and Pozzatti (1960) […] B. and POZZATTI C., Anti-tussive activity and other pharmacological properties of six oxadiazoles. Arch. int. pharmacodyn. 129, 249-263, 1960. Since the details are given in this publication, it should only be recalled that the test is performed on guineapigs by using acrolein inhalation to produce cough. Male guinea pigs were used weighing 300-500 grams. The pharmacokinetic study was performed in Long-Evans rats of both sexes weighing 150 grams. […] The animals were sacrificed at […]

[7] = Hydrolysis of GIH in the presence of artificial gastric juices
intestine [8] = assay: Gastrointestinal tolerance: ulcerogenic activity on the intestine of rats; settings: intestinal lesions, by gavage
Description: as §2

SMILES: CC(C)Cc1ccc(C(C)C(=O)O)cc1 (single isomer, unassigned; (+)) [Ibuprofen, (+)-2-(p-isobutylphenyl)propionic acid, reference compound]
- presence in serum samples of rats treated with GIH [1]: found in the serum samples
- % of rats with ulcers (intestine [2]; 16 mg/kg): 0%
- % of rats with ulcers (intestine [2]; 25 mg/kg): 20%
- % of rats with ulcers (intestine [2]; 75 mg/kg): 63%
- % reduction in number of writhings ([3]; 5 mg/kg p.o.): 18%
- % reduction in number of writhings ([3]; 10 mg/kg p.o.): 46%
- % reduction in number of writhings ([3]; 20 mg/kg p.o.): 52%
- % of rats with ulcers (gastric mucosa; 16 mg/kg p.o.): 11%
- % of rats with ulcers (gastric mucosa; 25 mg/kg p.o.): 33%
- % of rats with ulcers (gastric mucosa; 75 mg/kg p.o.): 43%
- Reduction of edema ([4]; 2.5 mg/kg p.o., 2 hours): 17
- Reduction of edema ([4]; 2.5 mg/kg p.o., 4 hours): 15
- Reduction of edema ([4]; 2.5 mg/kg p.o., 6 hours): 3
- Reduction of edema ([4]; 5 mg/kg p.o., 2 hours): 41
- Reduction of edema ([4]; 5 mg/kg p.o., 4 hours): 31
- Reduction of edema ([4]; 5 mg/kg p.o., 6 hours): 26
- Reduction of edema ([4]; 10 mg/kg p.o., 2 hours): 57
- Reduction of edema ([4]; 10 mg/kg p.o., 4 hours): 47
- Reduction of edema ([4]; 10 mg/kg p.o., 6 hours): 36
- anti-inflammatory activity, comparison of the two drugs [4]: substantially the same anti-inflammatory activity
- LD50 at 336 h (in vivo): 640 mg/kg

SMILES: COc1ccccc1OC(=O)C(C)c1ccc(CC(C)C)cc1 (stereo not shown) [GIH, guaiacol p-isobutyl hydratropate]
- % of rats with ulcers (intestine [2]; 25 mg/kg): 0%
- % of rats with ulcers (intestine [2]; 38 mg/kg): 20%
- % of rats with ulcers (intestine [2]; 112 mg/kg): 33%
- hydrolysis [5]: rapidly hydrolyzed into ibuprofen and guaiacol
- % reduction in number of writhings ([3]; 1.9 mg/kg p.o.): 11%
- % reduction in number of writhings ([3]; 3.8 mg/kg p.o.): 28%
- % reduction in number of writhings ([3]; 7.5 mg/kg p.o.): 37%
- % reduction in number of writhings ([3]; 15 mg/kg p.o.): 43%
- % reduction in number of writhings ([3]; 30 mg/kg p.o.): 55%
- minimal effective dose ([6]; po): 25 mg/kg
- hydrolysis [7]: no hydrolysis occurs
- % of rats with ulcers (gastric mucosa; 25 mg/kg p.o.): 0%
- % of rats with ulcers (gastric mucosa; 38 mg/kg p.o.): 10%
- % of rats with ulcers (gastric mucosa; 112 mg/kg p.o.): 33%
- effect on the gastric mucosa compared with ibuprofen (gastric mucosa; rats, by gavage): less toxic than ibuprofen
- Reduction of edema ([4]; 1.9 mg/kg p.o., 2 hours): 22
- Reduction of edema ([4]; 1.9 mg/kg p.o., 4 hours): 12
- Reduction of edema ([4]; 1.9 mg/kg p.o., 6 hours): 1
- Reduction of edema ([4]; 3.8 mg/kg p.o., 2 hours): 33
- Reduction of edema ([4]; 3.8 mg/kg p.o., 4 hours): 26
- Reduction of edema ([4]; 3.8 mg/kg p.o., 6 hours): 17
- Reduction of edema ([4]; 7.5 mg/kg p.o., 2 hours): 41
- Reduction of edema ([4]; 7.5 mg/kg p.o., 4 hours): 28
- Reduction of edema ([4]; 7.5 mg/kg p.o., 6 hours): 27
- Reduction of edema ([4]; 15 mg/kg p.o., 2 hours): 50
- Reduction of edema ([4]; 15 mg/kg p.o., 4 hours): 45
- Reduction of edema ([4]; 15 mg/kg p.o., 6 hours): 43
- anti-inflammatory activity, comparison of the two drugs [4]: substantially the same anti-inflammatory activity
- LD50 at 336 h (in vivo): 1650 mg/kg
- gastrointestinal toxicity compared with ibuprofen (intestine [8]): less toxic than ibuprofen

SMILES: COc1ccc2c3c1O[C@H]1[C@@H](O)C=C[C@H]4[C@@H](C2)N(C)CC[C@@]341 [codein, reference compound]
- minimal effective dose ([6]; ip): 2.5 mg/kg

Source: patent US4134989A (Aziende Chimiche Riunite Angelini Francesco A.C.R.A.F. …, priority 1976, dated 1979)
